Experimental data reported in patent publication US12410179B2, “Modulators of TNF alpha activity and uses thereof” (RayThera, Inc., priority 2023, dated 2025).
pIC50: −log10 of the molar value.

What follows are compounds tested against TNFα (Homo sapiens, UniProt P01375) (assay: HEK-Blue hTNFα reporter assay). Conditions: HEK-Blue hTNFα reporter cells, SEAP readout; read-out: IC50 Range.
Format: cell-based
Set-up: purchased R&D biosystem (R&D Systems) 210-TA-020/CF
In short: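 IC50 from 4-parameter regression of % inhibition, with OD620 of secreted SEAP (QUANTI-Blue, 1 h) referenced to cells with and without hTNFα. HEK-Blue TNFα reporter cells were exposed 24 h to compound premixed 1 h with hTNFα ([…]).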

TNFα, sequence (P01375 77-233 limits assumed): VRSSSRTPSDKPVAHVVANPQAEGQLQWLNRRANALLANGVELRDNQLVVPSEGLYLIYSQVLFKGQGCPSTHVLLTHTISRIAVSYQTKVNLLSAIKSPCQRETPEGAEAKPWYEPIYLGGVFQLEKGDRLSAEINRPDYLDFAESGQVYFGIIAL

Row | pIC50 | Structure (SMILES)
1 | > 7.60 | O=C1N[C@@H]2C[C@H](c3c(OC(F)F)cccc31)c1c2nn2ccc(C3=CCN(C(=O)O[C@H]4C[C@@H](O)C4)CC3)cc12 [Example 283]
2 | > 7.60 | [2H]C([2H])([2H])N1C(=O)c2cccc(OC(F)F)c2[C@H]2C[C@@H]1c1nn3cc(F)c(-c4cnc([C@]5(O)C[C@@](C)(N)C5)nc4)cc3c12 [Example 284]
3 | > 7.60 | [2H]C([2H])([2H])N1C(=O)c2cccc(OC(F)F)c2[C@H]2C[C@@H]1c1nn3ccc(-c4cnc([C@]5(N)C[C@@](C)(O)C5)nc4C)nc3c12 [Example 285]
4 | > 7.60 | [2H]C([2H])([2H])N1C(=O)c2cccc(OC(F)F)c2[C@H]2C[C@@H]1c1nn3ccc(-c4cnc(C(C)(C)N)nc4)nc3c12 [Example 286]
5 | > 7.60 | [2H]C([2H])([2H])N1C(=O)c2cccc(OC(F)F)c2[C@H]2C[C@@H]1c1nn3cc(F)c(-c4cnc(C(C)(C)N)nc4)nc3c12 [Example 287]
6 | > 7.60 | [2H]C([2H])([2H])N1C(=O)c2ccc(F)c(OC(F)F)c2[C@H]2C[C@@H]1c1nn3ccc(-c4cnc([C@]5(N)C[C@@](C)(O)C5)nc4)nc3c12 [Example 288]
7 | > 7.60 | [2H]C([2H])([2H])N1C(=O)c2ccc(F)c(OC(F)F)c2[C@H]2C[C@@H]1c1nn3ccc(-c4cnc([C@]5(N)C[C@@](C)(O)C5)c(F)c4)nc3c12 [Example 289]
8 | > 7.60 | [2H]C([2H])([2H])N1C(=O)c2cccc(OC(F)F)c2[C@H]2C[C@@H]1c1nn3cc(F)c(-c4cnc([C@]5(N)C[C@H](C#N)C5)nc4)cc3c12 [Example 290]
9 | > 7.60 | [2H]C([2H])([2H])N1C(=O)c2cccc(OC(F)F)c2[C@H]2C[C@@H]1c1nn3ccc(-c4cnc(N5CC(C)(N)C5)nc4)cc3c12 [Example 291]
10 | > 7.60 | [2H]C([2H])([2H])N1C(=O)c2cccc(OC(F)F)c2[C@H]2C[C@@H]1c1nn3ccc(-c4cnc([C@]5(C#N)C[C@@](C)(N)C5)c(F)c4)cc3c12 [Example 292]
11 | > 7.60 | [2H]C([2H])([2H])N1C(=O)c2cccc(OC(F)F)c2[C@H]2C[C@@H]1c1nn3ccc(-c4cnc([C@]5(C#N)C[C@](C)(N)C5)c(F)c4)cc3c12 [Example 293]
12 | > 7.60 | [2H]C([2H])([2H])N1C(=O)c2cccc(OC(F)F)c2[C@H]2C[C@@H]1c1nn3cc(F)c(-c4cnc(C(C)(C)N)nc4)cc3c12 [Example 294]
13 | > 7.60 | CN1C(=O)c2cccc(OC(F)F)c2[C@H]2C[C@@H]1c1nn3ccc(-c4cnc(C(C)(C)N)nc4)nc3c12 [Example 295]
14 | > 7.60 | [2H]C([2H])([2H])N1C(=O)c2cccc(OC(F)F)c2[C@H]2C[C@@H]1c1nn3cc(C)c(-c4cnc(C(C)(C)N)nc4)nc3c12 [Example 296]
15 | > 7.60 | [2H]C([2H])([2H])N1C(=O)c2ccc(F)c(OC(F)F)c2[C@H]2C[C@@H]1c1nn3ccc(-c4cnc(C(C)(C)N)nc4)nc3c12 [Example 297]
16 | > 7.60 | [2H]C([2H])([2H])N1C(=O)c2cccc(OC(F)F)c2[C@H]2C[C@@H]1c1nn3cnc(-c4cnc(C(C)(C)N)nc4)cc3c12 [Example 298]
17 | > 7.60 | CN1C(=O)c2cccc(C(F)F)c2[C@H]2C[C@@H]1c1nn3ccc(-c4cnc(C5(N)CCC5)nc4)cc3c12 [Example 299]
18 | > 7.60 | [2H]C([2H])([2H])N1C(=O)c2cccc(OC(F)F)c2[C@H]2C[C@@H]1c1nn3cc(C)c(-c4cnc(C(C)(C)N)nc4)cc3c12 [Example 300]
19 | > 7.60 | [2H]C([2H])([2H])N1C(=O)c2cccc(C#N)c2[C@H]2C[C@@H]1c1nn3ccc(-c4cnc([C@]5(N)C[C@@](C)(C#N)C5)nc4)nc3c12 [Example 301, (7R,14R)-12-(2-((1s,3S)-1-amino-3-cyano-3-methylcyclobutyl)pyrimidin-5-yl)-6-(methyl-d3)-5-oxo-5,6,7,14-tetrahydro-7,14-methanobenzo[c]pyrimido[1′,2′:1,5]pyrazolo[4,3-f]azocine-1-carbonitrile]
